Measured values reported in ChEMBL document CHEMBL5375952, “Discovery of Novel 8-Hydroxyquinoline Derivatives with Potent In Vitro and In Vivo Antifungal Activity” (J Med Chem, 2023).
Converted amounts (≈) assume the structure as drawn.

Experiments:
Candida albicans [1] = experiment: Antifungal activity against Candida albicans SC5314 assessed as fungal growth inhibition incubated for 48 hrs by broth microdilution method; type: functional
Candida albicans [2] = experiment: Antifungal activity against Candida albicans 21 assessed as fungal growth inhibition incubated for 48 hrs by broth microdilution method; type: functional
Nakaseomyces glabratus [3] = experiment: Antifungal activity against Candida glabrata 201 assessed as fungal growth inhibition incubated for 48 hrs by broth microdilution method; type: functional
Nakaseomyces glabratus [4] = experiment: Antifungal activity against Candida glabrata 202 assessed as fungal growth inhibition incubated for 48 hrs by broth microdilution method; type: functional
Nakaseomyces glabratus [5] = experiment: Antifungal activity against Candida glabrata 205 assessed as fungal growth inhibition incubated for 48 hrs by broth microdilution method; type: functional
Pichia kudriavzevii [6] = experiment: Antifungal activity against Candida krusei 68 assessed as fungal growth inhibition incubated for 48 hrs by broth microdilution method; type: functional
Pichia kudriavzevii [7] = experiment: Antifungal activity against Candida krusei 477 assessed as fungal growth inhibition incubated for 48 hrs by broth microdilution method; type: functional
Candida parapsilosis [8] = experiment: Antifungal activity against Candida parapsilosis 105 assessed as fungal growth inhibition incubated for 48 hrs by broth microdilution method; type: functional; conditions: Lodderomyces parapsilosis
Candida parapsilosis [9] = experiment: Antifungal activity against Candida parapsilosis 107 assessed as fungal growth inhibition incubated for 48 hrs by broth microdilution method; type: functional; conditions: Lodderomyces parapsilosis
Candida parapsilosis [10] = experiment: Antifungal activity against Candida parapsilosis 125 assessed as fungal growth inhibition incubated for 48 hrs by broth microdilution method; type: functional; conditions: Lodderomyces parapsilosis
Candida tropicalis [11] = experiment: Antifungal activity against Candida tropicalis 176 assessed as fungal growth inhibition incubated for 48 hrs by broth microdilution method; type: functional
Candida tropicalis [12] = experiment: Antifungal activity against Candida tropicalis 184 assessed as fungal growth inhibition incubated for 48 hrs by broth microdilution method; type: functional
Cryptococcus neoformans [13] = experiment: Antifungal activity against Cryptococcus neoformans 443 assessed as fungal growth inhibition incubated for 48 hrs by broth microdilution method; type: functional
Cryptococcus neoformans [14] = experiment: Antifungal activity against Cryptococcus neoformans 444 assessed as fungal growth inhibition incubated for 48 hrs by broth microdilution method; type: functional
Cryptococcus neoformans [15] = experiment: Antifungal activity against Cryptococcus neoformans 445 assessed as fungal growth inhibition incubated for 48 hrs by broth microdilution method; type: functional
Aspergillus fumigatus [16] = experiment: Antifungal activity against Aspergillus fumigatus 023-12 assessed as fungal growth inhibition incubated for 48 hrs by broth microdilution method; type: functional
Aspergillus fumigatus [17] = experiment: Antifungal activity against Aspergillus fumigatus A assessed as fungal growth inhibition incubated for 48 hrs by broth microdilution method; type: functional
Aspergillus fumigatus [18] = experiment: Antifungal activity against Aspergillus fumigatus 7544 assessed as fungal growth inhibition incubated for 48 hrs by broth microdilution method; type: functional
[19] = Cytotoxicity against human Caco-2 cells assessed as cell growth inhibition incubated for 24 hrs by CCK8 assay; type: toxicity, cell-based
Candida albicans [20] = experiment: Antifungal activity against Candida albicans 25 assessed as fungal growth inhibition incubated for 48 hrs by broth microdilution method; type: functional
Candida albicans [21] = experiment: Antifungal activity against Candida albicans 337 assessed as fungal growth inhibition incubated for 48 hrs by broth microdilution method; type: functional
Candida albicans [22] = experiment: Antifungal activity against Candida albicans 338 assessed as fungal growth inhibition incubated for 48 hrs by broth microdilution method; type: functional
[Candida] auris [23] = Antifungal activity against Candida auris 276 assessed as fungal growth inhibition incubated for 48 hrs by broth microdilution method; type: functional; conditions: Candidozyma auris
[Candida] auris [24] = Antifungal activity against Candida auris 277 assessed as fungal growth inhibition incubated for 48 hrs by broth microdilution method; type: functional; conditions: Candidozyma auris
[Candida] auris [25] = Antifungal activity against Candida auris 278 assessed as fungal growth inhibition incubated for 48 hrs by broth microdilution method; type: functional; conditions: Candidozyma auris
[Candida] auris [26] = Antifungal activity against Candida auris CBS 12372 assessed as fungal growth inhibition incubated for 48 hrs by broth microdilution method; type: functional; conditions: Candidozyma auris
[Candida] auris [27] = Antifungal activity against Candida auris 887 assessed as fungal growth inhibition incubated for 48 hrs by broth microdilution method; type: functional; conditions: Candidozyma auris
[Candida] auris [28] = Antifungal activity against Candida auris 888 assessed as fungal growth inhibition incubated for 48 hrs by broth microdilution method; type: functional; conditions: Candidozyma auris
Nakaseomyces glabratus [29] = experiment: Antifungal activity against Candida glabrata 204 assessed as fungal growth inhibition incubated for 48 hrs by broth microdilution method; type: functional
Pichia kudriavzevii [30] = experiment: Antifungal activity against Candida krusei 471 assessed as fungal growth inhibition incubated for 48 hrs by broth microdilution method; type: functional
Pichia kudriavzevii [31] = experiment: Antifungal activity against Candida krusei 472 assessed as fungal growth inhibition incubated for 48 hrs by broth microdilution method; type: functional
Pichia kudriavzevii [32] = experiment: Antifungal activity against Candida krusei 474 assessed as fungal growth inhibition incubated for 48 hrs by broth microdilution method; type: functional
Candida parapsilosis [33] = experiment: Antifungal activity against Candida parapsilosis 104 assessed as fungal growth inhibition incubated for 48 hrs by broth microdilution method; type: functional; conditions: Lodderomyces parapsilosis
Candida parapsilosis [34] = experiment: Antifungal activity against Candida parapsilosis ATCC22019 assessed as fungal growth inhibition incubated for 48 hrs by broth microdilution method; type: functional; conditions: Lodderomyces parapsilosis
Candida parapsilosis [35] = experiment: Antifungal activity against Candida parapsilosis 106 assessed as fungal growth inhibition incubated for 48 hrs by broth microdilution method; type: functional; conditions: Lodderomyces parapsilosis
Candida tropicalis [36] = experiment: Antifungal activity against Candida tropicalis 172 assessed as fungal growth inhibition incubated for 48 hrs by broth microdilution method; type: functional
Candida tropicalis [37] = experiment: Antifungal activity against Candida tropicalis 177 assessed as fungal growth inhibition incubated for 48 hrs by broth microdilution method; type: functional
Candida tropicalis [38] = experiment: Antifungal activity against Candida tropicalis 182 assessed as fungal growth inhibition incubated for 48 hrs by broth microdilution method; type: functional
Cryptococcus neoformans [39] = experiment: Antifungal activity against Cryptococcus neoformans H99 assessed as fungal growth inhibition incubated for 48 hrs by broth microdilution method; type: functional
Cryptococcus neoformans [40] = experiment: Antifungal activity against Cryptococcus neoformans 56992 assessed as fungal growth inhibition incubated for 48 hrs by broth microdilution method; type: functional
Cryptococcus neoformans [41] = experiment: Antifungal activity against Cryptococcus neoformans HN1 assessed as fungal growth inhibition incubated for 48 hrs by broth microdilution method; type: functional
Cryptococcus neoformans [42] = experiment: Antifungal activity against Cryptococcus neoformans HN2 assessed as fungal growth inhibition incubated for 48 hrs by broth microdilution method; type: functional
Cryptococcus neoformans [43] = experiment: Antifungal activity against Cryptococcus neoformans HN2-40 assessed as fungal growth inhibition incubated for 48 hrs by broth microdilution method; type: functional
Cryptococcus neoformans [44] = experiment: Antifungal activity against Cryptococcus neoformans HN15 assessed as fungal growth inhibition incubated for 48 hrs by broth microdilution method; type: functional
Cryptococcus neoformans [45] = experiment: Antifungal activity against Cryptococcus neoformans HN17 assessed as fungal growth inhibition incubated for 48 hrs by broth microdilution method; type: functional
Cryptococcus neoformans [46] = experiment: Antifungal activity against Cryptococcus neoformans HN19 assessed as fungal growth inhibition incubated for 48 hrs by broth microdilution method; type: functional
Cryptococcus neoformans [47] = experiment: Antifungal activity against Cryptococcus neoformans HN20 assessed as fungal growth inhibition incubated for 48 hrs by broth microdilution method; type: functional
Cryptococcus neoformans [48] = experiment: Antifungal activity against Cryptococcus neoformans BJ3 assessed as fungal growth inhibition incubated for 48 hrs by broth microdilution method; type: functional
[49] = Antifungal activity against Cryptococcus gattii WM178 assessed as fungal growth inhibition incubated for 48 hrs by broth microdilution method; type: functional, Cryptococcus gattii VGI
[50] = Antifungal activity against Cryptococcus gattii WM179 assessed as fungal growth inhibition incubated for 48 hrs by broth microdilution method; type: functional, Cryptococcus gattii VGI
[51] = Antifungal activity against Cryptococcus gattii E566 assessed as fungal growth inhibition incubated for 48 hrs by broth microdilution method; type: functional, Cryptococcus gattii VGI
[52] = Antifungal activity against Cryptococcus gattii SCZ20024 assessed as fungal growth inhibition incubated for 48 hrs by broth microdilution method; type: functional, Cryptococcus gattii VGI
[53] = Antifungal activity against Cryptococcus gattii SCZ20031 assessed as fungal growth inhibition incubated for 48 hrs by broth microdilution method; type: functional, Cryptococcus gattii VGI

Q: Which MIC (Candida albicans [1]) does the source give for `OC(Cn1cncn1)(Cn1cncn1)c1ccc(F)cc1F` [FLUCONAZOLE] here?
A: 0.5 µg/mL (≈ 1.63 µM)

Q: What about the MIC (Candida albicans [2]) of the same molecule?
A: 0.5 µg/mL (≈ 1.63 µM)

Q: What about the MIC (Nakaseomyces glabratus [3]) of the same molecule?
A: 1 µg/mL (≈ 3.27 µM)

Q: And the MIC (Nakaseomyces glabratus [4])?
A: 1 µg/mL (≈ 3.27 µM)

Q: What about the MIC (Nakaseomyces glabratus [5]) of the same molecule?
A: 1 µg/mL (≈ 3.27 µM)

Q: What about the MIC (Pichia kudriavzevii [6]) of the same molecule?
A: 0.25 µg/mL (≈ 0.816 µM)

Q: And the MIC (Pichia kudriavzevii [7])?
A: 0.25 µg/mL (≈ 0.816 µM)

Q: And the MIC (Candida parapsilosis [8])?
A: > 64 µg/mL

Q: And the MIC (Candida parapsilosis [9])?
A: > 64 µg/mL

Q: And the MIC (Candida parapsilosis [10])?
A: > 64 µg/mL

Q: What about the MIC (Candida tropicalis [11]) of the same molecule?
A: 2 µg/mL (≈ 6.53 µM)

Q: And the MIC (Candida tropicalis [12])?
A: 2 µg/mL (≈ 6.53 µM)

Q: What about the MIC (Cryptococcus neoformans [13]) of the same molecule?
A: 8 µg/mL (≈ 26.1 µM)

Q: And the MIC (Cryptococcus neoformans [14])?
A: 8 µg/mL (≈ 26.1 µM)

Q: What about the MIC (Cryptococcus neoformans [15]) of the same molecule?
A: 8 µg/mL (≈ 26.1 µM)

Q: What about the MIC (Aspergillus fumigatus [16]) of the same molecule?
A: > 64 µg/mL

Q: And the MIC (Aspergillus fumigatus [17])?
A: > 64 µg/mL

Q: What about the MIC (Aspergillus fumigatus [18]) of the same molecule?
A: > 64 µg/mL

Q: What about the IC50 at 24 h [19] of the same molecule?
A: > 64 µg/mL

Q: What about the MIC (Candida albicans [20]) of the same molecule?
A: 0.5 µg/mL (≈ 1.63 µM)

Q: What about the MIC (Candida albicans [21]) of the same molecule?
A: 0.25 µg/mL (≈ 0.816 µM)

Q: And the MIC (Candida albicans [22])?
A: 0.5 µg/mL (≈ 1.63 µM)

Q: What about the MIC ([Candida] auris [23]) of the same molecule?
A: 2 µg/mL (≈ 6.53 µM)

Q: And the MIC ([Candida] auris [24])?
A: 4 µg/mL (≈ 13.1 µM)

Q: And the MIC ([Candida] auris [25])?
A: > 64 µg/mL

Q: And the MIC ([Candida] auris [26])?
A: > 64 µg/mL

Q: And the MIC ([Candida] auris [27])?
A: > 64 µg/mL

Q: What about the MIC ([Candida] auris [28]) of the same molecule?
A: > 64 µg/mL

Q: And the MIC (Nakaseomyces glabratus [29])?
A: 1 µg/mL (≈ 3.27 µM)

Q: And the MIC (Pichia kudriavzevii [30])?
A: > 64 µg/mL

Q: What about the MIC (Pichia kudriavzevii [31]) of the same molecule?
A: > 64 µg/mL

Q: What about the MIC (Pichia kudriavzevii [32]) of the same molecule?
A: > 64 µg/mL

Q: And the MIC (Candida parapsilosis [33])?
A: 0.5 µg/mL (≈ 1.63 µM)

Q: And the MIC (Candida parapsilosis [34])?
A: 0.5 µg/mL (≈ 1.63 µM)

Q: And the MIC (Candida parapsilosis [35])?
A: 0.5 µg/mL (≈ 1.63 µM)

Q: What about the MIC (Candida tropicalis [36]) of the same molecule?
A: 0.125 µg/mL (≈ 0.408 µM)

Q: What about the MIC (Candida tropicalis [37]) of the same molecule?
A: 2 µg/mL (≈ 6.53 µM)

Q: And the MIC (Candida tropicalis [38])?
A: 0.125 µg/mL (≈ 0.408 µM)

Q: And the MIC (Cryptococcus neoformans [39])?
A: 8 µg/mL (≈ 26.1 µM)

Q: And the MIC (Cryptococcus neoformans [40])?
A: 4 µg/mL (≈ 13.1 µM)

Q: What about the MIC (Cryptococcus neoformans [41]) of the same molecule?
A: 4 µg/mL (≈ 13.1 µM)

Q: What about the MIC (Cryptococcus neoformans [42]) of the same molecule?
A: 4 µg/mL (≈ 13.1 µM)

Q: What about the MIC (Cryptococcus neoformans [43]) of the same molecule?
A: 8 µg/mL (≈ 26.1 µM)

Q: And the MIC (Cryptococcus neoformans [44])?
A: 4 µg/mL (≈ 13.1 µM)

Q: And the MIC (Cryptococcus neoformans [45])?
A: 16 µg/mL (≈ 52.2 µM)

Q: And the MIC (Cryptococcus neoformans [46])?
A: 8 µg/mL (≈ 26.1 µM)

Q: And the MIC (Cryptococcus neoformans [47])?
A: 2 µg/mL (≈ 6.53 µM)

Q: What about the MIC (Cryptococcus neoformans [48]) of the same molecule?
A: 16 µg/mL (≈ 52.2 µM)

Q: What about the MIC [49] of the same molecule?
A: 4 µg/mL (≈ 13.1 µM)

Q: What about the MIC [50] of the same molecule?
A: 4 µg/mL (≈ 13.1 µM)

Q: And the MIC [51]?
A: 2 µg/mL (≈ 6.53 µM)

Q: And the MIC [52]?
A: 4 µg/mL (≈ 13.1 µM)

Q: What about the MIC [53] of the same molecule?
A: 4 µg/mL (≈ 13.1 µM)
